These compounds were tested on HOP-62 (assay: Cytotoxicity against human HOP62 cells assessed as effect on cell growth at 10 uM incubated for 48 hrs by sulforhodamine B assay). Details: hop-62, 48 h.
Assay type: cell-based

| SMILES | Activity |
| --- | --- |
| CCCCCCN1C(=O)[C@@H]2CCC(=O)N2C1N(C)C (stereo not given in full) | Non-Toxic |
| O=C(NCc1ccc(Cl)cc1Cl)[C@@H]1CCC(=O)N1C(c1ccccc1)c1ccccc1 | Non-Toxic |
| O=C1CCCC(C(=O)NCc2ccc(Cl)cc2Cl)N1 (stereo not given) | Non-Toxic |

What follows are compounds tested on SK-MEL-28 (assay: Cytotoxicity against human SK-MEL-28 cells assessed as effect on cell growth at 10 uM incubated for 48 hrs by sulforhodamine B assay). Details: sk-mel-28, 48 h.
Assay type: cell-based

| SMILES | Activity |
| --- | --- |
| CCCCCCN1C(=O)[C@@H]2CCC(=O)N2C1N(C)C (stereo not given in full) | Non-Toxic |
| O=C(NCc1ccc(Cl)cc1Cl)[C@@H]1CCC(=O)N1C(c1ccccc1)c1ccccc1 | Non-Toxic |
| O=C1CCCC(C(=O)NCc2ccc(Cl)cc2Cl)N1 (stereo not given) | Non-Toxic |

What follows are compounds tested on SN12C (assay: Cytotoxicity against human SN12C cells assessed as effect on cell growth at 10 uM incubated for 48 hrs by sulforhodamine B assay). Details: not given.
Assay type: cell-based

| SMILES | Activity |
| --- | --- |
| CCCCCCN1C(=O)[C@@H]2CCC(=O)N2C1N(C)C (stereo not given in full) | Non-Toxic |
| O=C(NCc1ccc(Cl)cc1Cl)[C@@H]1CCC(=O)N1C(c1ccccc1)c1ccccc1 | Non-Toxic |
| O=C1CCCC(C(=O)NCc2ccc(Cl)cc2Cl)N1 (stereo not given) | Non-Toxic |

Each compound was assayed on K562 (assay: Cytotoxicity against human K562 cells assessed as effect on cell growth at 10 uM incubated for 48 hrs by sulforhodamine B assay). Details: k562, 48 h.
Assay type: cell-based

| SMILES | Activity |
| --- | --- |
| CCCCCCN1C(=O)[C@@H]2CCC(=O)N2C1N(C)C (stereo not given in full) | Non-Toxic |
| O=C(NCc1ccc(Cl)cc1Cl)[C@@H]1CCC(=O)N1C(c1ccccc1)c1ccccc1 | Non-Toxic |
| O=C1CCCC(C(=O)NCc2ccc(Cl)cc2Cl)N1 (stereo not given) | Non-Toxic |

These compounds were tested on NCI-H226 (assay: Cytotoxicity against human NCI-H226 cells assessed as effect on cell growth at 10 uM incubated for 48 hrs by sulforhodamine B assay). Details: nci-h226, 48 h.
Assay type: cell-based

| SMILES | Activity |
| --- | --- |
| CCCCCCN1C(=O)[C@@H]2CCC(=O)N2C1N(C)C (stereo not given in full) | Non-Toxic |
| O=C(NCc1ccc(Cl)cc1Cl)[C@@H]1CCC(=O)N1C(c1ccccc1)c1ccccc1 | Non-Toxic |
| O=C1CCCC(C(=O)NCc2ccc(Cl)cc2Cl)N1 (stereo not given) | Non-Toxic |

These compounds were tested on SF-268 (assay: Cytotoxicity against human SF268 cells assessed as effect on cell growth at 10 uM incubated for 48 hrs by sulforhodamine B assay). Details: sf-268, 48 h.
Assay type: cell-based

| SMILES | Activity |
| --- | --- |
| CCCCCCN1C(=O)[C@@H]2CCC(=O)N2C1N(C)C (stereo not given in full) | Non-Toxic |
| O=C(NCc1ccc(Cl)cc1Cl)[C@@H]1CCC(=O)N1C(c1ccccc1)c1ccccc1 | Non-Toxic |
| O=C1CCCC(C(=O)NCc2ccc(Cl)cc2Cl)N1 (stereo not given) | Non-Toxic |

These compounds were tested on BT-549 (assay: Cytotoxicity against human BT549 cells assessed as effect on cell growth at 10 uM incubated for 48 hrs by sulforhodamine B assay). Details: bt-549, 48 h.
Assay type: cell-based

| SMILES | Activity |
| --- | --- |
| CCCCCCN1C(=O)[C@@H]2CCC(=O)N2C1N(C)C (stereo not given in full) | Non-Toxic |
| O=C(NCc1ccc(Cl)cc1Cl)[C@@H]1CCC(=O)N1C(c1ccccc1)c1ccccc1 | Non-Toxic |
| O=C1CCCC(C(=O)NCc2ccc(Cl)cc2Cl)N1 (stereo not given) | Non-Toxic |

These compounds were tested on SK-MEL-2 (assay: Cytotoxicity against human SK-MEL-2 cells assessed as effect on cell growth at 10 uM incubated for 48 hrs by sulforhodamine B assay). Details: sk-mel-2, 48 h.
Assay type: cell-based

| SMILES | Activity |
| --- | --- |
| CCCCCCN1C(=O)[C@@H]2CCC(=O)N2C1N(C)C (stereo not given in full) | Non-Toxic |
| O=C(NCc1ccc(Cl)cc1Cl)[C@@H]1CCC(=O)N1C(c1ccccc1)c1ccccc1 | Non-Toxic |
| O=C1CCCC(C(=O)NCc2ccc(Cl)cc2Cl)N1 (stereo not given) | Non-Toxic |

What follows are compounds tested on RXF 393 (assay: Cytotoxicity against human RXF393 cells assessed as effect on cell growth at 10 uM incubated for 48 hrs by sulforhodamine B assay). Details: rxf 393, 48 h.
Assay type: cell-based

| SMILES | Activity |
| --- | --- |
| CCCCCCN1C(=O)[C@@H]2CCC(=O)N2C1N(C)C (stereo not given in full) | Non-Toxic |
| O=C(NCc1ccc(Cl)cc1Cl)[C@@H]1CCC(=O)N1C(c1ccccc1)c1ccccc1 | Non-Toxic |
| O=C1CCCC(C(=O)NCc2ccc(Cl)cc2Cl)N1 (stereo not given) | Non-Toxic |

These compounds were tested on LOX IMVI (assay: Cytotoxicity against human LOXIMVI cells assessed as effect on cell growth at 10 uM incubated for 48 hrs by sulforhodamine B assay). Details: not given.
Assay type: cell-based

| SMILES | Activity |
| --- | --- |
| CCCCCCN1C(=O)[C@@H]2CCC(=O)N2C1N(C)C (stereo not given in full) | Non-Toxic |
| O=C(NCc1ccc(Cl)cc1Cl)[C@@H]1CCC(=O)N1C(c1ccccc1)c1ccccc1 | Non-Toxic |
| O=C1CCCC(C(=O)NCc2ccc(Cl)cc2Cl)N1 (stereo not given) | Non-Toxic |

The compounds below were run on MCF7 (assay: Cytotoxicity against human MCF7 cells assessed as effect on cell growth at 10 uM incubated for 48 hrs by sulforhodamine B assay). Details: mcf7, 48 h.
Assay type: cell-based

| SMILES | Activity |
| --- | --- |
| CCCCCCN1C(=O)[C@@H]2CCC(=O)N2C1N(C)C (stereo not given in full) | Non-Toxic |
| O=C(NCc1ccc(Cl)cc1Cl)[C@@H]1CCC(=O)N1C(c1ccccc1)c1ccccc1 | Non-Toxic |
| O=C1CCCC(C(=O)NCc2ccc(Cl)cc2Cl)N1 (stereo not given) | Non-Toxic |

Each compound was assayed on SK-MEL-5 (assay: Cytotoxicity against human SK-MEL-5 cells assessed as effect on cell growth at 10 uM incubated for 48 hrs by sulforhodamine B assay). Details: sk-mel-5, 48 h.
Assay type: cell-based

| SMILES | Activity |
| --- | --- |
| CCCCCCN1C(=O)[C@@H]2CCC(=O)N2C1N(C)C (stereo not given in full) | Non-Toxic |
| O=C(NCc1ccc(Cl)cc1Cl)[C@@H]1CCC(=O)N1C(c1ccccc1)c1ccccc1 | Non-Toxic |
| O=C1CCCC(C(=O)NCc2ccc(Cl)cc2Cl)N1 (stereo not given) | Non-Toxic |

What follows are compounds tested on UACC-257 (assay: Cytotoxicity against human UACC257 cells assessed as effect on cell growth at 10 uM incubated for 48 hrs by sulforhodamine B assay). Details: uacc-257, 48 h.
Assay type: cell-based

| SMILES | Activity |
| --- | --- |
| CCCCCCN1C(=O)[C@@H]2CCC(=O)N2C1N(C)C (stereo not given in full) | Non-Toxic |
| O=C(NCc1ccc(Cl)cc1Cl)[C@@H]1CCC(=O)N1C(c1ccccc1)c1ccccc1 | Non-Toxic |
| O=C1CCCC(C(=O)NCc2ccc(Cl)cc2Cl)N1 (stereo not given) | Non-Toxic |

Each compound was assayed on Hs-578T (assay: Cytotoxicity against human Hs 578T cells assessed as effect on cell growth at 10 uM incubated for 48 hrs by sulforhodamine B assay). Details: not given.
Assay type: cell-based

| SMILES | Activity |
| --- | --- |
| CCCCCCN1C(=O)[C@@H]2CCC(=O)N2C1N(C)C (stereo not given in full) | Non-Toxic |
| O=C(NCc1ccc(Cl)cc1Cl)[C@@H]1CCC(=O)N1C(c1ccccc1)c1ccccc1 | Non-Toxic |
| O=C1CCCC(C(=O)NCc2ccc(Cl)cc2Cl)N1 (stereo not given) | Non-Toxic |

Each compound was assayed on CCRF-CEM (assay: Cytotoxicity against human CCRF-CEM cells assessed as effect on cell growth at 10 uM incubated for 48 hrs by sulforhodamine B assay). Details: not given.
Assay type: cell-based

| SMILES | Activity |
| --- | --- |
| CCCCCCN1C(=O)[C@@H]2CCC(=O)N2C1N(C)C (stereo not given in full) | Non-Toxic |
| O=C(NCc1ccc(Cl)cc1Cl)[C@@H]1CCC(=O)N1C(c1ccccc1)c1ccccc1 | Non-Toxic |
| O=C1CCCC(C(=O)NCc2ccc(Cl)cc2Cl)N1 (stereo not given) | Non-Toxic |

These compounds were tested on OVCAR-3 (assay: Cytotoxicity against human OVCAR3 cells assessed as effect on cell growth at 10 uM incubated for 48 hrs by sulforhodamine B assay). Details: ovcar-3, 48 h.
Assay type: cell-based

| SMILES | Activity |
| --- | --- |
| CCCCCCN1C(=O)[C@@H]2CCC(=O)N2C1N(C)C (stereo not given in full) | Non-Toxic |
| O=C(NCc1ccc(Cl)cc1Cl)[C@@H]1CCC(=O)N1C(c1ccccc1)c1ccccc1 | Non-Toxic |
| O=C1CCCC(C(=O)NCc2ccc(Cl)cc2Cl)N1 (stereo not given) | Non-Toxic |

Each compound was assayed on MDA-MB-435 (assay: Cytotoxicity against human MDA-MB-435 cells assessed as effect on cell growth at 10 uM incubated for 48 hrs by sulforhodamine B assay). Details: mda-mb-435, 48 h.
Assay type: cell-based

| SMILES | Activity |
| --- | --- |
| CCCCCCN1C(=O)[C@@H]2CCC(=O)N2C1N(C)C (stereo not given in full) | Non-Toxic |
| O=C(NCc1ccc(Cl)cc1Cl)[C@@H]1CCC(=O)N1C(c1ccccc1)c1ccccc1 | Non-Toxic |
| O=C1CCCC(C(=O)NCc2ccc(Cl)cc2Cl)N1 (stereo not given) | Non-Toxic |

The compounds below were run on OVCAR-4 (assay: Cytotoxicity against human OVCAR4 cells assessed as effect on cell growth at 10 uM incubated for 48 hrs by sulforhodamine B assay). Details: ovcar-4, 48 h.
Assay type: cell-based

| SMILES | Activity |
| --- | --- |
| CCCCCCN1C(=O)[C@@H]2CCC(=O)N2C1N(C)C (stereo not given in full) | Non-Toxic |
| O=C(NCc1ccc(Cl)cc1Cl)[C@@H]1CCC(=O)N1C(c1ccccc1)c1ccccc1 | Non-Toxic |
| O=C1CCCC(C(=O)NCc2ccc(Cl)cc2Cl)N1 (stereo not given) | Non-Toxic |

The compounds below were run on MDA-MB-231 (assay: Cytotoxicity against human MDA-MB-231 cells assessed as effect on cell growth at 10 uM incubated for 48 hrs by sulforhodamine B assay). Details: mda-mb-231, 48 h.
Assay type: cell-based

| SMILES | Activity |
| --- | --- |
| CCCCCCN1C(=O)[C@@H]2CCC(=O)N2C1N(C)C (stereo not given in full) | Non-Toxic |
| O=C(NCc1ccc(Cl)cc1Cl)[C@@H]1CCC(=O)N1C(c1ccccc1)c1ccccc1 | Non-Toxic |
| O=C1CCCC(C(=O)NCc2ccc(Cl)cc2Cl)N1 (stereo not given) | Non-Toxic |

The compounds below were run on CAKI-1 (assay: Growth inhibition of human Caki1 cells assessed as growth percentage at 10 uM incubated for 48 hrs by sulforhodamine B assay). Details: caki-1, 48 h.
Assay type: cell-based

| SMILES | Activity |
| --- | --- |
| CCCCCCN1C(=O)[C@@H]2CCC(=O)N2C1N(C)C (stereo not given in full) | Non-Toxic |
| O=C(NCc1ccc(Cl)cc1Cl)[C@@H]1CCC(=O)N1C(c1ccccc1)c1ccccc1 | Non-Toxic |
| O=C1CCCC(C(=O)NCc2ccc(Cl)cc2Cl)N1 (stereo not given) | Non-Toxic |
